Experimental findings from ChEMBL document CHEMBL1148083, “Patuletin acetylrhamnosides from Kalanchoe brasiliensis as inhibitors of human lymphocyte proliferative activity” (J Nat Prod, 1994) are described below.

Converted amounts (≈) assume the structure as drawn. Where only a bound is given, the exact number is not on record here.

The experiment is described as follows: Inhibition of PHA-induced human lymphocyte proliferation. The experiment is classed as functional, cell-based.
One may read the IC50 as the concentration that inhibits the measured activity by half. Higher therefore signals weaker potency in that assay. With `COc1c(O[C@@H]2O[C@@H](C)[C@H](O)[C@@H](O)[C@H]2OC(C)=O)cc2oc(-c3ccc(O)c(O)c3)c(O[C@@H]3O[C@@H](C)[C@H](OC(C)=O)[C@@H](O)[C@H]3O)c(=O)c2c1O` [KALAMBROSIDE A], 0.5 µg/mL (≈ 0.706 µM) corresponded to half-maximal inhibition (IC50).

As to `COc1c(O[C@@H]2O[C@@H](C)[C@H](O)[C@@H](O)[C@H]2O)cc2oc(-c3ccc(O)c(O)c3)c(O[C@@H]3O[C@@H](C)[C@H](OC(C)=O)[C@@H](O)[C@H]3O)c(=O)c2c1O` [KALAMBROSIDE C], the IC50 was above 10 µg/mL.

Consider `COc1c(O[C@@H]2O[C@@H](C)[C@H](O)[C@@H](O)[C@H]2OC(C)=O)cc2oc(-c3ccc(O)c(O)c3)c(O[C@@H]3O[C@@H](C)[C@H](O)[C@@H](O)[C@H]3O)c(=O)c2c1O` [KALAMBROSIDE B], for which the IC50 turned out to be 1 µg/mL (≈ 1.5 µM).

Turning to `COc1c(O[C@@H]2O[C@@H](C)[C@H](O)[C@@H](OC(C)=O)[C@H]2O)cc2oc(-c3ccc(O)c(O)c3)c(O[C@@H]3O[C@@H](C)[C@H](OC(C)=O)[C@@H](O)[C@H]3O)c(=O)c2c1O`, it took 0.25 µg/mL (≈ 0.353 µM) to reach half-maximal inhibition (IC50).

For `COc1c(O[C@@H]2O[C@@H](C)[C@H](O)[C@@H](OC(C)=O)[C@H]2O)cc2oc(-c3ccc(O)c(O)c3)c(O[C@@H]3O[C@@H](C)[C@H](O)[C@@H](O)[C@H]3O)c(=O)c2c1O`, the IC50 was 10 µg/mL (≈ 15 µM).
